The assay addresses T1, human D3 dopamine receptors (Homo sapiens, UniProt P35462).
T1 construct: expressed in transfected cells; host or cells: CHO cells
As to the kind of experiment: [125I] iodosulpride displacement binding to cloned human D3 dopamine receptors expressed in CHO cells. The note with it: displacement of 0.1 nM [125I] iodosulpride, CHO cell membranes, 30 min at 37° C.; read-out: IC50 values at the human D3 receptor. As to the method:
The inhibition constants (Ki) of test compounds for displacement of [^125 I] iodosulpride binding to human D2 and D3 dopamine receptors expressed in CHO cells have been determined. […] Cultures were grown as monolayers or in suspension in standard cell culture media. Cells were recovered by scraping (from monolayers) or by centrifugation (from suspension cultures), and were washed two or three times by suspension in phosphate buffered saline followed by collection by centrifugation. Cell pellets were stored frozen at -40° C. Crude cell membranes were prepared by homogenisation followed by high-speed centrifugation, and characterisation of cloned receptors achieved by radioligand binding.
Cell pellets were gently thawed at room temperature, and resuspended in about 20 volumes of ice-cold 50 mM Tris salts (pH 7.4@37° C.), 20 mM EDTA, 0.2M sucrose. The suspension was homogenised using an Ultra-Turrax at full speed for 15 sec. The homogenate was centrifuged at 18,000 r.p.m for 20 min at 4° C. in a Sorvall RC5C centrifuge. […] The final pellet was resuspended in 50 mM Tris salts (pH 7.4@37° C.), and the protein content determined using bovine serum albumin as a standard (Bradford, M. M. (1976) Anal. Biochem. 72, 248-254). […]
Competition curves were analysed simultaneously whenever possible using non-linear least-squares fitting procedures, capable of fitting one, two or three site models.

Where a name gives a salt, the structure may show the parent alone.

T1 sequence (P35462 whole entry): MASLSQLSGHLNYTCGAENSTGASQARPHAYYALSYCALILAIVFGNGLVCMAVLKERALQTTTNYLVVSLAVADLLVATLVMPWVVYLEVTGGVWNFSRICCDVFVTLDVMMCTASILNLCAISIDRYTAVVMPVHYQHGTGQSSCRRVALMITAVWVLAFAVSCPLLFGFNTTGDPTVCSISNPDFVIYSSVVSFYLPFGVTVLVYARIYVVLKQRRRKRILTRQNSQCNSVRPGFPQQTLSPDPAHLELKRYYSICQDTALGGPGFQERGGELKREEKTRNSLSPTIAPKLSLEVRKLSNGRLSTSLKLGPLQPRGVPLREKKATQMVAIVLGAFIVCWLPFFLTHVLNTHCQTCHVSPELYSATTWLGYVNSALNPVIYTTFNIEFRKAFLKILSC

In the case of `CCN(Cc1ccc(-c2cc(S(=O)(=O)CC)ccc2OC)[nH]1)C1CCc2ccccc21` (centres unmarked) [Example 2, 2-(5-Ethylsulfonyl-2-methoxyphenyl)-5-[N-ethyl-N-1-(indanyl)aminomethyl]-1H-pyrrole, hydrochloride], the IC50 was under 5 nM. Under `CCN(Cc1ccc(-c2cc(S(=O)(=O)CC)ccc2OC)[nH]1)C1CCCc2ccccc21` (centres unmarked) [Example 1, 2-(5-Ethylsulfonyl-2-methoxyphenyl)-5-[N-ethyl-N-1-(1,2,3,4-tetrahydronaphthyl)aminomethyl]-1H-pyrrole hydrochloride] stands under 5 nM.

The term IC50 denotes the concentration needed to halve the response being measured.

These data come from patent US5637609A, “2-phenylpyrrole derivatives as dopamine D3 receptor antagonists” (SmithKline Beecham plc, priority 1993, dated 1997).
